Reference: patent publication US6503552B1, “Adding flavidin to a composition as an anti-oxidant” (Council of Scientific and Industrial Research, priority 2000, dated 2003)

Experiment: antioxidant activity in β-carotene-linoleate system (bleaching of β-carotene)
Assay type: biochemical
Conditions: for antioxidant activity: 120 min incubation at 50° C.; for bleaching time of β-carotene: different concentrations, controls (no additive) decolorized within 120 min
Experimental: In another embodiment of the present invention, evaluation of the antioxidant activity of flavidin has been carried out employing the procedure of Hiddgi et. al. (Phytochem, 37, 1585, 1994) with minor modifications said method comprises the following steps: […]
i) preparing assay reagent of β-carotene in chloroform by mixing linoleic acid and 200 mg of Tween 40 (polyoxyethylene sorbitan monopalmitate), ii) warming polyoxyethylene sorbitan monopalmitate (Tween 40) at a temperature of about 50° C. in a water bath, iii) removing chloroform from assay reagent at a temperature of about 40° C. under vacuum using a rotary evaporator, iv) diluting the resulting solution with triple distilled water and mixing the resulting emulsion well for one minute, v) further diluting the resulting emulsion with oxygenated water, vi) transferring aliquots of the reagent as in step (v) into tubes containing 0.2 ml of desired amount of antioxidant in ethanol, vii) keeping a control of 0.2 ml of ethanol and 4 ml of reagent as prepared in step (v). viii) immediately taking optical density of all sample (t=0) and also taking the O.D at 15 min. interval for 2 hr. (t=120), ix) incubating the tubes in water bath at a temperature of about 50° C. between each measurement taken, and x) measuring the color till the color of β-carotene disappears.
The procedure of Hiddgo et al., (Phytochemistry, 37, 1585, 1994) was followed for testing of antioxidant activity of the flavidin with minor modification. The assay reagent was prepared as follows: 0.2 mg of β-carotene in 0.5 ml of chloroform was added to 20 mg of linoleic acid and 200 mg of Tween 40 (polyoxyethylene sorbitan monopalmitate) were mixed. Tween 40 was warmed in a water bath at 50° C. before use. The chloroform was removed at 40° C. under vacuum using a rotary evaporator. The resulting solution was immediately diluted with 10 ml of triple-distilled water and the emulsion was mixed well for 1 min. The emulsion was further diluted with 40 ml oxygenated water. Four ml aliquots of this reagent were transferred into different tubes containing 0.2 ml of the desired amount of antioxidant in ethanol. A control consisting of 0.2 ml of ethanol and 4 ml of emulsion was prepared. Optical density of all samples were taken immediately (t=0) and at 15 min intervals for 2 h (t=120). The tubes were placed in a water bath at 50° C. between measurements. All determinations were preformed in duplicate. Measurement of color was recorded until the color of β-carotene disappears.
The antioxidant activity (AA) of the isolated compound was evaluated in terms of bleaching the β-carotene using the formula of Hiddgo et al., (Phytochemistry, 37, 1585, 1994). AA=100[1−(Ao−At)/(A^oo−A^ot)] where Ao and A^o are the absorbance measured at the beginning of the incubation for flavidin and the control, respectively, and At and A^ot are the absorbance measured in the presence and absence of the flavidin after incubation for 120 min.

Row | SMILES | antioxidant activity (10 ppm) [%] | antioxidant activity (25 ppm) [%] | antioxidant activity (50 ppm, maximum activity) [%] | bleaching time of β-carotene
1 | Oc1cc2c3c(c1)COc1cc(O)cc(c1-3)CC2 [flavidin, 2,7-dihydroxy 9,10-dihydrophenanthro-4,5 bcd-pyran] | 68.5 | 79 | 90.2 | enhanced
2 | COc1ccc(O)c(C(C)(C)C)c1 [BHA, butylated hydroxy anisole, reference compound] |  |  |  | enhanced
